Reference: US10294202B2, “Pyrrolidinones as herbicides” (FMC Corporation, priority 2013, dated 2019)
Several values for one entry are separate records, joined by “and”; a condition that tells them apart may be missing. Equal values may be shown once.

Columns and labels:
soybean (GLXMA) = assay: Test H preemergence mixture test (Colby); assay type: in vivo, Glycine max; conditions: applied alone, 21 d, mean of three replicates, scale 0-100
Text: (§1) Colby's Equation was used to determine the herbicidal effects expected from the mixtures. Colby's Equation (Colby, S. R. “Calculating Synergistic and Antagonistic Responses of Herbicide Combinations,” Weeds, 15(1), pp 20-22 (1967)) calculates the expected additive effect of herbicidal mixtures and for two active ingredients is of the form: Pa+b=Pa+Pb−(PaPb/100)
(§2) where • Pa+b is the percentage effect of the mixture expected from additive contribution of the individual components: • Pa is the observed percentage effect of the first active ingredient at the same use rate as in the mixture, and • Pb is the observed percentage effect of the second active ingredient at the same use rate as in the mixture. In the following Tables, rates are shown in grams of active ingredient per hectare (g a.i./ha); “Obsd.” is the observed effect. “Exp.” is the expected effect calculated from Colby's Equation.
(§3) This test evaluated the effect of mixtures of compound 80 with several commercial herbicides on four plant species. Seeds of plant species selected from corn (ZEAMD, Zea mays), soybean (GLXMA, Glycine max), waterhemp (common waterhemp, AMATA, Amaranthus rudis), and giant foxtail (SETFA, Setaria faberii) were planted into a silt loam soil and treated preemergence with test chemicals formulated in a non-phytotoxic solvent mixture which included a surfactant and applied using a volume of 281 L/ha. Each treatment was replicated three times. Treated plants and controls were maintained in a greenhouse using supplemental lighting to maintain a photoperiod of about 16 h; daytime and nighttime temperatures were about 24-30° C. and 19-21° C., respectively. Nutrients were applied using a balanced fertilizer applied through the watering system. At 21 d after treatment, all species were compared to controls and visually evaluated. Plant response ratings were calculated as the means of the three replicates, are summarized in Tables H1 through H5, and are based on a scale of 0 to 100 where 0 is no effect and 100 is complete control. A dash (-) response means no test result. The Expected (Exp.) results were calculated using Colby's Equation as described for Test G above.

corn (ZEAMD) = assay: Test H preemergence mixture test (Colby); assay type: in vivo, Zea mays; conditions: applied alone, 21 d, mean of three replicates, scale 0-100
Text: as §1, §2, §3

waterhemp (AMATA) = assay: Test H preemergence mixture test (Colby); assay type: in vivo, Amaranthus rudis; conditions: applied alone, 21 d, mean of three replicates, scale 0-100
Text: as §1, §2, §3

giant foxtail (SETFA) = assay: Test H preemergence mixture test (Colby); assay type: in vivo, Setaria faberii; conditions: applied alone, 21 d, mean of three replicates, scale 0-100
Text: as §1, §2, §3

[1] = test system: small-flower umbrella sedge (CYPDI); assay: Test G paddy mixture test (Colby); assay type: in vivo, Cyperus difformis; conditions: applied alone, 20 g a.i./ha; 14 d; scale 0-100
Procedure: (§4) Seeds of small-flower umbrella […], Cyperus difformis) and […], Heteranthera limosa) were sown on the soil surface in two separate quadrants of 11-cm (4-inch) tubs filled with steam pasteurized Tama soil. Simultaneously, plantings of […], Echinochloa crus-galli) and transplanted japonica rice (ORYSA, Oryza sativa) were established in separate “plug” flats. […] Herbicide application timing was targeted at the 2.0 to 2.5 leaf stage and the plants were treated with test chemicals formulated in a non-phytotoxic solvent. Treated plants and controls were maintained in a greenhouse for 14 d, after which time all species were compared to controls and visually evaluated. Plant response ratings are summarized in Tables G1 through G12, and are based on a scale of 0 to 100 where 0 is no effect and 100 is complete control. A dash (-) response means no test result. Colby's Equation was used to determine the herbicidal effects expected from the mixtures. […] “Exp.” is the expected effect calculated from Colby's Equation.

ducksalad (HETLI) = assay: Test G paddy mixture test (Colby); assay type: in vivo, Heteranthera limosa; conditions: applied alone, 20 g a.i./ha; 14 d; scale 0-100
Procedure: as §4

barnyardgrass (ECHCG) = assay: Test G paddy mixture test (Colby); assay type: in vivo, Echinochloa crus-galli; conditions: applied alone, 20 g a.i./ha; 14 d; scale 0-100
Procedure: as §4

SMILES	GLXMA Obsd. (soybean (GLXMA); 1 g a.i./ha)	GLXMA Obsd. (soybean (GLXMA); 31 g a.i./ha)	ZEAMD Obsd. (corn (ZEAMD); 1 g a.i./ha)	ZEAMD Obsd. (corn (ZEAMD); 31 g a.i./ha)	AMATA Obsd. (waterhemp (AMATA); 1 g a.i./ha)	AMATA Obsd. (waterhemp (AMATA); 31 g a.i./ha)	SETFA Obsd. (giant foxtail (SETFA); 1 g a.i./ha)	SETFA Obsd. (giant foxtail (SETFA); 31 g a.i./ha)	GLXMA Obsd. (soybean (GLXMA); 62 g a.i./ha)	GLXMA Obsd. (soybean (GLXMA); 125 g a.i./ha)	ZEAMD Obsd. (corn (ZEAMD); 62 g a.i./ha)	ZEAMD Obsd. (corn (ZEAMD); 125 g a.i./ha)	AMATA Obsd. (waterhemp (AMATA); 62 g a.i./ha)	AMATA Obsd. (waterhemp (AMATA); 125 g a.i./ha)	SETFA Obsd. (giant foxtail (SETFA); 62 g a.i./ha)	SETFA Obsd. (giant foxtail (SETFA); 125 g a.i./ha)	CYPDI Obsd. [1]	HETLI Obsd. (ducksalad (HETLI))	ECHCG Obsd. (barnyardgrass (ECHCG))
CC(C)N(C)S(=O)(=O)NC(=O)c1cc(-n2c(=O)cc(C(F)(F)F)n(C)c2=O)c(F)cc1Cl [Saflufenacil]	0	13	20	0	0	83	0	23	–	–	–	–	–	–	–	–	–	–	–
CCOC(=O)c1ccccc1S(=O)(=O)NC(=O)Nc1nc(Cl)cc(OC)n1 [Chlorimuron-ethyl]	0	22	22	73	47	89	0	47	–	–	–	–	–	–	–	–	–	–	–
CCNc1nc(Cl)nc(NC(C)C)n1 [Atrazine]	–	–	–	–	–	–	–	–	13	48	0	0	33	90	0	8	–	–	–
COC(=O)c1ccccc1CS(=O)(=O)NC(=O)Nc1nc(OC)cc(OC)n1 [Bensulfuron-methyl]	–	–	–	–	–	–	–	–	–	–	–	–	–	–	–	–	100 and 98	100	65
CCc1cccc(C)c1N(C(=O)CCl)[C@@H](C)COC [S-metolachlor]	–	18	–	13	–	0	–	73	–	15	–	20	–	85	–	99	–	–	–
